Test results published in PMC6133161, “Thiazoles with cyclopropyl fragment as antifungal, anticonvulsant, and anti-Toxoplasma gondii agents: synthesis, toxicity evaluation, and molecular docking study” (Medicinal Chemistry Research, 2018).
Values after ≈ are worked out from the molar mass of the structure shown. Where two headings read alike, the source gives them in different places.

Key:
[1] = system: Candida albicans ATCC 10231; assay: Broth microdilution MIC/MFC, reference strain; assay type: cell-based; details: C. albicans ATCC 10231
From the text: (§1) The examined compounds 3a–3j were screened in vitro for antibacterial and antifungal activities using the broth microdilution method according to European Committee on Antimicrobial Susceptibility Testing (EUCAST) (EUCAST [2003]) and Clinical and Laboratory Standards Institute guidelines (CLSI [2012]) against reference strains of microorganisms from American Type Culture Collection (ATCC), including fungi belonging to yeasts (Candida albicans ATCC 2091, Candida albicans ATCC 10231, Candida parapsilosis ATCC 22019 and Candida krusei ATCC 14243).
(§2) In the study of antifungal activity of the compounds 3a–3j, 15 clinical strains of different species of yeasts from Candida species, namely C. albicans, C. dubliniensis C. famata, C. inconspicua, C. krusei, C. tropicalis, C. glabrata, C. lambica, C. kefyr, C. lusitaniae, C. parapsilosis, C. guilliermondii, C. lusitaniae, C. pulcherrima and C. sake were also used. These fungi were isolated by the author (from Department of Pharmaceutical Microbiology of Medical University in Lublin, Poland) from different clinical materials, e.g., from upper respiratory tract of hospitalized patients including cancer patients (i.e., with non-small cell lung cancer or hematological malignancies). Some patients were after pre-operative or post-operative chemotherapy (treated with etoposide or cis-platin given in doses according to the standard procedures), patients with chronic hepatitis C (undergoing peginterferon and ribavirin therapy or without antiviral therapy), patients with diabetes, elderly people, aged of 65 years old or older, staying in close population, such as a care centre and people staying outside the home care. The Ethical Committee of the Medical University of Lublin approved the study protocol (No. KE-0254/75/2011). The isolates were identified by standard diagnostic methods—biochemical microtest, e.g., API 20C AUX, ID 32C, API Candida (bioMérieux) on the basis of assimilation of various substrates. All the used microbial cultures were first subcultured on nutrient agar or Sabouraud agar for bacteria and fungi, respectively. The RPMI 1640 with MOPS (for fungi) were inoculated with the suspensions of fungal species. Microbial suspensions were prepared in sterile saline (0.85% NaCl) with an optical density of 0.5 McFarland standard scale (Wiegand et al. [2008]). Samples containing examined compounds were dissolved in dimethyl sulfoxide (DMSO). Furthermore, fungal suspensions were put onto Petri dishes with solid media containing 2 mg/ml of the tested compounds followed incubation under appropriate conditions. The inhibition of microbial growth was judged by comparison with a control culture prepared without any sample tested. Nystatin (Sigma) was used as a reference antifungal compound. Subsequently MIC minimal inhibitory concentration (MIC) of the compounds was examined by the microdilution broth method, using their two-fold dilutions in RPMI 1640 broth with MOPS prepared in 96-well polystyrene plates. Final concentrations of the compounds ranged from 1000 to 0.0038 µg/ml. Microbial suspensions were prepared in sterile saline with an optical density of 0.5 McFarland standard. Next fungal suspension was added per each well containing broth and various concentrations of the examined compounds. After incubation, the MIC was assessed spectrophotometric as the lowest concentration of the samples showing complete fungal growth inhibition. Appropriate DMSO, growth and sterile controls were carried out. The medium with no tested substances was used as a control (Wiegand et al. [2008]). The minimal fungicidal concentration (MFC) are defined as the lowest concentration of the compounds that is required to kill a particular fungal species. MFC was determined by removing the culture using for MIC determinations from each well and spotting onto appropriate agar medium. The plates were incubated. The lowest compounds concentration with no visible growth observed was assessed as a fungicidal concentration. […]

[2] = system: Candida albicans ATCC 2091; assay: Broth microdilution MIC/MFC, reference strain; assay type: cell-based; details: C. albicans ATCC 2091
From the text: as §1, §2

[3] = system: Candida krusei ATCC 14243; assay: Broth microdilution MIC/MFC, reference strain; assay type: cell-based; details: C. krusei ATCC 14243
From the text: as §1, §2

[4] = system: Candida parapsilosis ATCC 22019; assay: Broth microdilution MIC/MFC, reference strain; assay type: cell-based; details: C. parapsilosis ATCC 22019
From the text: as §1, §2

[5] = system: 6-Hz psychomotor seizures; assay: 6-Hz test; assay type: in vivo, mouse; details: Mus musculus, mice, 100 mg/kg ip, read-out: X/Y number of mice protected (X) per number of mice tested (Y) (converted)
Experimental: For in vivo tests that assessed anticonvulsant properties of the test compounds 3a-3j adult male Albino Swiss (CD-1) mice weighing between 18 and 22 g were used. The animals were housed in groups of ten mice per cage at room temperature of 22 ± 2 °C, under light/dark (12:12) cycle. The animals had free access to food and tap water before the experiments. The ambient temperature of the experimental room and humidity (50 ± 10%) were kept consistent throughout all the tests. For behavioral experiments the animals were selected randomly. Each experimental group consisted of 4-8 animals/dose. The experiments were performed between 9 AM and 2 PM. Immediately after the in vivo assay the animals were euthanized by cervical dislocation. All procedures were approved by the Local Ethics Committee of the Jagiellonian University in Krakow (34/2018, 1.02.2018)) and the treatment of animals was in full accordance with ethical standards laid down in respective Polish and EU regulations (Directive No. 86/609/EEC). For in vivo tests the compounds 3a-3j were prepared in 1% Tween 80 solution (POCH, Poland) and they were administered by the intraperitoneal route. Control mice received 1% Tween 80. Pentylenetetrazole (PTZ), pilocarpine hydrochloride and scopolamine butylbromide were provided by Sigma Aldrich (Poland). For the tests they were prepared in 0.9% saline (Polfa Kutno, Poland). PTZ and pilocarpine were administered 60 min after the test compound or vehicle. To assess anticonvulsant properties of the test compounds anticonvulsant screening was conducted. Four assays were used: PTZ, maximal electroshock seizure (MES), 6-Hz and pilocarpine tests. In these assays the dose of 100 mg/kg was chosen as a starting dose. If it turned out to be effective, a lower dose (30 mg/kg) was also tested. This test was performed according to (Barton et al. [2001]). It is an alternative electroshock paradigm that involves low-frequency (6 Hz), long-duration (3 s) electrical stimulation. Corneal stimulation (0.2 ms-duration monopolar rectangular pulses at 6 Hz for 3 s) was delivered by a constant-current device. During electrical stimulation mice were manually restrained and released into the observation cage immediately after current application. At the time of drug administration a drop of 0.5% tetracaine ([…] sterile solution, […] Pharmaceuticals Inc., USA) was applied into the eyes of all animals. Prior to the placement of corneal electrodes, a drop of 0.9% saline was applied on the eyes. In this model seizures manifest in 'stunned' posture associated with rearing, forelimb automatic movements and clonus, twitching of the vibrissae and Straub-tail. At the end of the seizure episode the animals resume their normal exploratory behavior. In this test protection against a seizure episode is considered as the end point and animals are considered to be protected if they resume their normal exploratory behavior within 10 s after electrical stimulation.

[6] = system: L929 and VERO cell lines; assay: MTT cytotoxicity assay; assay type: cell-based, mouse; African green monkey; details: 24 h, higher concentrations not reached due to limited solubility
[7] = Candida albicans, ATCC10231, read-out: MFC
[8] = Candida albicans, ATCC10231, read-out: MIC
[9] = Candida albicans, ATCC2091, read-out: MFC
[10] = Candida albicans, ATCC2091, read-out: MIC
[11] = Pichia kudriavzevii, ATCC14243, read-out: MFC
[12] = Pichia kudriavzevii, ATCC14243, read-out: MIC
[13] = Lodderomyces parapsilosis, ATCC22019, read-out: MFC
[14] = Lodderomyces parapsilosis, ATCC22019, read-out: MIC

Row | SMILES | MFC [1, 7] [µg/mL] | MIC [1, 8] [µg/mL] | MFC [2, 9] [µg/mL] | MIC [2, 10] [µg/mL] | MFC [3, 11] [µg/mL] | MIC [3, 12] [µg/mL] | MFC [4, 13] [µg/mL] | MIC [4, 14] [µg/mL] | responders at 100 mg/kg [5] [%] | highest possible non-cytotoxic concentration [6] [µg/mL] | further results
1 | Fc1ccc(-c2csc(N/N=C/C3CC3)n2)c(F)c1 [Compound 3g, (E)-2-(2-(Cyclopropylmethylene)hydrazinyl)-4-(2,4-difluorophenyl)thiazole] | 0.98 (≈ 3.51 µM) | 0.48 (≈ 1.72 µM) | 1.95 (≈ 6.98 µM) | 1.95 (≈ 6.98 µM) | 31.2 (≈ 112 µM) | 7.81 (≈ 28 µM) | 3.91 (≈ 14 µM) | 3.91 (≈ 14 µM) | 25 | 15.63 | –
2 | N#Cc1ccc(-c2csc(N/N=C/C3CC3)n2)cc1 [Compound 3h, (E)-4-(2-(2-(Cyclopropylmethylene)hydrazinyl)thiazol-4-yl)benzonitrile] | 1.95 (≈ 7.27 µM) | 0.48 (≈ 1.79 µM) | 3.91 (≈ 14.6 µM) | 1.95 (≈ 7.27 µM) | 1.95 (≈ 7.27 µM) | 0.98 (≈ 3.65 µM) | 3.91 (≈ 14.6 µM) | 3.91 (≈ 14.6 µM) | 50 | 31.25 | –
3 | Brc1ccc(-c2csc(N/N=C/C3CC3)n2)cc1 [Compound 3b, (E)-4-(4-Bromophenyl)-2-(2-(cyclopropylmethylene)hydrazinyl)thiazole] | 0.24 (≈ 0.745 µM) | 0.06 (≈ 0.186 µM) | 0.98 (≈ 3.04 µM) | 0.12 (≈ 0.372 µM) | 0.98 (≈ 3.04 µM) | 0.24 (≈ 0.745 µM) | 1.95 (≈ 6.05 µM) | 0.48 (≈ 1.49 µM) | 0 | 7.81 | –
4 | FC(F)(F)c1ccc(-c2csc(N/N=C/C3CC3)n2)cc1 [Compound 3e, (E)-2-(2-(Cyclopropylmethylene)hydrazinyl)-4-(4-(trifluoromethyl)phenyl)thiazole] | – | – | – | – | – | – | – | – | 25 | 3.91 | –
5 | Clc1ccc(-c2csc(N/N=C/C3CC3)n2)cc1 [Compound 3c, (E)-4-(4-Chlorophenyl)-2-(2-(cyclopropylmethylene)hydrazinyl)thiazole] | 0.24 (≈ 0.864 µM) | 0.12 (≈ 0.432 µM) | 0.48 (≈ 1.73 µM) | 0.12 (≈ 0.432 µM) | 0.98 (≈ 3.53 µM) | 0.12 (≈ 0.432 µM) | 1.95 (≈ 7.02 µM) | 0.48 (≈ 1.73 µM) | 25 | 7.81 | –
6 | COc1ccc(-c2csc(N/N=C/C3CC3)n2)cc1 [Compound 3f, (E)-2-(2-(Cyclopropylmethylene)hydrazinyl)-4-(4-methoxyphenyl)thiazole] | 0.03 (≈ 0.11 µM) | 0.015 (≈ 0.0549 µM) | 1.95 (≈ 7.13 µM) | 0.24 (≈ 0.878 µM) | 0.98 (≈ 3.59 µM) | 0.48 (≈ 1.76 µM) | 3.91 (≈ 14.3 µM) | 0.48 (≈ 1.76 µM) | 50 | 31.25 | –
7 | C[C@@H]1[C@H](O)[C@@H](C)/C=C/C=C/CC/C=C/C=C/C=C/C=C/C(O[C@H]2O[C@H](C)[C@@H](O)[C@H](N)[C@@H]2O)CC2O[C@](O)(CC(O)C(O)CCC(O)CC(O)CC(O)CC(=O)O[C@H]1C)CC(O)C2C(=O)O (stereo partly shown) [Nystatin, reference compound] | – | – | – | – | – | – | – | – | – | – | MFC [1]: 0.48 µg/mL (≈ 0.518 µM); MFC/MIC [1]: 1; MIC [1]: 0.48 µg/mL (≈ 0.518 µM); MFC [2]: 0.24 µg/mL (≈ 0.259 µM); MFC/MIC [2]: 1; MIC [2]: 0.24 µg/mL (≈ 0.259 µM); MFC [3]: 0.24 µg/mL (≈ 0.259 µM); MFC/MIC [3]: 1; MIC [3]: 0.24 µg/mL (≈ 0.259 µM); MFC [4]: 0.48 µg/mL (≈ 0.518 µM); MFC/MIC [4]: 2; MIC [4]: 0.24 µg/mL (≈ 0.259 µM)
8 | Cc1ccc(-c2csc(N/N=C/C3CC3)n2)cc1 [Compound 3d, (E)-2-(2-(Cyclopropylmethylene)hydrazinyl)-4-p-tolylthiazole] | 0.24 (≈ 0.933 µM) | 0.06 (≈ 0.233 µM) | 1.95 (≈ 7.58 µM) | 0.12 (≈ 0.466 µM) | 0.48 (≈ 1.87 µM) | 0.06 (≈ 0.233 µM) | 0.98 (≈ 3.81 µM) | 0.24 (≈ 0.933 µM) | 50 | 31.25 | –
9 | Fc1ccc(-c2csc(N/N=C/C3CC3)n2)cc1 [Compound 3a, (E)-2-(2-(Cyclopropylmethylene)hydrazinyl)-4-(4-fluorophenyl)thiazole] | 15.6 (≈ 59.8 µM) | 1.95 (≈ 7.46 µM) | 3.91 (≈ 15 µM) | 1.95 (≈ 7.46 µM) | 15.6 (≈ 59.8 µM) | 3.91 (≈ 15 µM) | 3.91 (≈ 15 µM) | 1.95 (≈ 7.46 µM) | 25 | 31.25 | –
10 | O=[N+]([O-])c1ccc(-c2csc(N/N=C/C3CC3)n2)cc1 [Compound 3j, (E)-2-(2-(Cyclopropylmethylene)hydrazinyl)-4-(4-nitrophenyl)thiazole] | 1.95 (≈ 6.76 µM) | 0.48 (≈ 1.66 µM) | 7.81 (≈ 27.1 µM) | 3.91 (≈ 13.6 µM) | 3.91 (≈ 13.6 µM) | 0.98 (≈ 3.4 µM) | 31.2 (≈ 108 µM) | 3.91 (≈ 13.6 µM) | 0 | 31.25 | –
